From article PMC10477886, “Adamantaniline Derivatives Target ATP5B to Inhibit Translation of Hypoxia Inducible Factor‐1α” (Advanced Science, 2023)

Tests used:
[1] = plasma concentration and pharmacokinetics after intraperitoneal administration in ICR mice; type: in vivo; conditions: intraperitoneal 50 mg kg^−1, two mice per compound, five times
Description: First, we roughly screened the concentrations in the plasma of seven selected compounds (1‐3n, 1‐3au, 1‐4a, 1‐4k, 1‐4l, 1‐4m, and 1‐4p) at indicated times after intraperitoneal administration in the Institute of Cancer Research (ICR) mice at a dose of 50 mg kg^−1 with two mice per compound, the blood at five different times was collected and the plasma concentration was analyzed finally. […] Besides, we examined the toxicity of HI‐104 in ICR mice by administering for 1 week at a dose of 100 mg kg^−1 by intraperitoneal injection.

[2] = system: HIF‐1α transcriptional activity; experiment: dual‐luciferase assay (HRE‐Firefly Luciferase / renilla) of HIF‐1α transcriptional activity in HEK293T cells; type: cell-based, human; conditions: mean ± s.d. (n = 3); for inhibition at 10 µM: read-out: Inhibition rate [%] @ 10 µM; for IC50: HEK293T dual‐luciferase
Excerpt: To screen HIF‐1α inhibitors in a robust cell‐based assay, we optimized the dual‐luciferase assay with pLenti‐HIF‐1αP2A (P402A and P564A) instead of pLenti‐HIF‐1α in order to ensure the expression of HIF‐1α under normoxia condition. In the cell‐based assay, HEK293T cells were co‐transfected with pLenti‐HIF‐1αP2A, renilla, and hypoxia‐responsive element (HRE)‐Firefly Luciferase (Figure S1, Supporting Information). […] Three compounds were selected as the positive controls including two inhibitors (PX‐478 2HCl and BAY 87‐2243) and an activator (BAY 85‐3934) in the screening assay.
HEK293T cells were stably transfected with reporter plasmids pGMLV‐HRE‐LUC‐puromycin, pMSCV‐renilla‐hygromycin, and pLenti‐HIF‐1αP2A‐neomycin. Stable cell line constructed above, 293‐HIF‐1αP2A‐HRE‐Fluc‐Rluc, were seeded in 384‐well plates and cultured in DMEM with 10% FBS. The following day, the cells were pretreated with indicated chemical compounds from the National Compound Library of the Shanghai Institute of Materia Medica, Chinese Academy of Sciences by Mosquito HTS. The plate was then placed in an incubator chamber and incubated at 37 °C for 24 h. The ratio of firefly/renilla luciferase activity was determined by using the Envision (PerkinElmer).
Stable cell line 293‐HRE‐Fluc‐Rluc expressed luciferase and renilla or HEK293T cells transfected with indicated plasmids (pGL3‐HRE‐luciferase and pSV40‐renilla) were seeded in a 96‐well plate. The cells were co‐incubated with indicated compounds for 24 h and luciferase activities were detected in Microplate Reader (BioTek SYNEGRY H1) using the Dual Luciferase Reporter Assay System Kit (Promega, USA E1910) according to the manufacturer's instruction. The relative Luc activity was normalized by renilla activity. Three independent experiments were performed, and the calculated means and SDs are presented.

[3] = Homo sapiens, HEK-293T, 10 µM, incubation 24 h, HEK293T

Row | SMILES | inhibition at 10 µM [2, 3] | IC50 ([2]; Homo sapiens, HEK-293T) | further results
1 | O=C(Nc1ccc(C23CC4CC(CC(C4)C2)C3)cc1)c1cccc(O)c1 [1‐3n, N‐(4‐((3r,5r,7r)‐Adamantan‐1‐yl)Phenyl)−3‐Hydroxybenzamide] | 99.7 ± 0.1% | 26 ± 5 nM | concentration in the plasma (rough screen) [1]: barely detectable in the plasma
2 | CC(=O)Nc1cccc(C(=O)Nc2ccc(C34CC5CC(CC(C5)C3)C4)cc2)c1 [1‐3w, 3‐Acetamido‐N‐(4‐((3r,5r,7r)‐Adamantan‐1‐yl)Phenyl)Benzamide] | 77.4 ± 2.3% | 1900 ± 200 nM | 
3 | CC(=O)Nc1ccc(C(=O)Nc2ccc(C34CC5CC(CC(C5)C3)C4)cc2)cc1 [1‐3x, 4‐Acetamido‐N‐(4‐((3r,5r,7r)‐Adamantan‐1‐yl)Phenyl)Benzamide] | 84.4 ± 1.9% | 950 ± 110 nM | 
4 | O=C(CCCC[C@@H]1SC[C@@H]2NC(=O)N[C@@H]21)Nc1ccc(C(=O)Nc2ccc(C34CC5CC(CC(C5)C3)C4)cc2)cc1 [1‐3y, N‐(4‐((3r,5r,7r)‐Adamantan‐1‐yl)Phenyl)−4‐(5‐((3aS,4S,6aR)−2‐Oxohexahydro‐1H‐Thieno[3,4‐d]Imidazol‐4‐yl)Pentanamido)Benzamide] |  |  | Inhibition rate [%] @ 10 µM ([2]; 10 µM, incubation 24 h, HEK293T): 90.4 ± 0.8%; IC50 [2]: 280 ± 100 nM
5 | O=C(Nc1ccc(C23CC4CC(CC(C4)C2)C3)cc1)c1ccccn1 [1‐4a, N‐(4‐((3r,5r,7r)‐Adamantan‐1‐yl)Phenyl)Picolinamide] | 99.7 ± 0.2% | 65 ± 22 nM | concentration in the plasma (rough screen) [1]: barely detectable in the plasma
6 | O=C(Nc1ccc(C23CC4CC(CC(C4)C2)C3)cc1)c1cccnc1 [1‐4b, N‐(4‐((3r,5r,7r)‐Adamantan‐1‐yl)Phenyl)Nicotinamide] | 75.2 ± 1.9% |  | 
7 | O=C(Nc1ccc(C23CC4CC(CC(C4)C2)C3)cc1)c1ccncc1 [1‐4c, N‐(4‐((3r,5r,7r)‐Adamantan‐1‐yl)Phenyl)Isonicotinamide] | 41.6 ± 2% |  | 
8 | O=C(Nc1ccc(C23CC4CC(CC(C4)C2)C3)cc1)c1ccncn1 [1‐4d, N‐(4‐((3r,5r,7r)‐Adamantan‐1‐yl)Phenyl)Pyrimidine‐4‐Carboxamide] | 97.1 ± 0.4% | 280 ± 60 nM | 
9 | Cc1cnc(C(=O)Nc2ccc(C34CC5CC(CC(C5)C3)C4)cc2)cn1 [1‐4e] | 36.3 ± 4.2% |  | 
10 | COc1ccc(C(=O)Nc2ccc(C34CC5CC(CC(C5)C3)C4)cc2)nc1 [1‐4f] | 36.1 ± 5.6% |  | 
11 | COc1ccnc(C(=O)Nc2ccc(C34CC5CC(CC(C5)C3)C4)cc2)c1 [1‐4g, N‐(4‐((3r,5r,7r)‐Adamantan‐1‐yl)Phenyl)−4‐Methoxypicolinamide] | 68.5 ± 0.4% |  | 
12 | O=C(Nc1ccc(C23CC4CC(CC(C4)C2)C3)cc1)c1cc(Cl)ccn1 [1‐4h, N‐(4‐((3r,5r,7r)‐Adamantan‐1‐yl)Phenyl)−4‐Chloropicolinamide] | 91.5 ± 1.3% | 720 ± 20 nM | 
13 | O=C(Nc1ccc(C23CC4CC(CC(C4)C2)C3)cc1)c1cncs1 [1‐4i, N‐(4‐((3r,5r,7r)‐Adamantan‐1‐yl)Phenyl)thiazole‐5‐Carboxamide] | 97.1 ± 0.4% | 520 ± 20 nM | 
14 | O=C(Nc1ccc(C23CC4CC(CC(C4)C2)C3)cc1)c1cccs1 [1‐4j, N‐(4‐((3r,5r,7r)‐Adamantan‐1‐yl)Phenyl)Thiophene‐2‐Carboxamide] | 98.7 ± 0.6% | 390 ± 10 nM | 
15 | O=C(Nc1ccc(C23CC4CC(CC(C4)C2)C3)cc1)c1c[nH]cn1 [1‐4k, N‐(4‐((3r,5r,7r)‐Adamantan‐1‐yl)Phenyl)−1H‐Imidazole‐4‐Carboxamide] | 99.7 ± 0.2% | 86 ± 3 nM | concentration in the plasma (rough screen) [1]: barely detectable in the plasma
16 | Cn1cncc1C(=O)Nc1ccc(C23CC4CC(CC(C4)C2)C3)cc1 [1‐4l, N‐(4‐((3r,5r,7r)‐Adamantan‐1‐yl)Phenyl)−1‐Methyl‐1H‐Imidazole‐5‐Carboxamide] | 97.8 ± 0.6% | 83 ± 3 nM | concentration in the plasma (rough screen) [1]: barely detectable in the plasma
17 | O=C(Nc1ccc(C23CC4CC(CC(C4)C2)C3)cc1)c1cc[nH]n1 [1‐4m, N‐(4‐((3r,5r,7r)‐Adamantan‐1‐yl)Phenyl)−1H‐Pyrazole‐3‐Carboxamide] | 99.8 ± 0.1% | 79 ± 2 nM | concentration in the plasma (rough screen) [1]: barely detectable in the plasma
18 | Cn1cccc1C(=O)Nc1ccc(C23CC4CC(CC(C4)C2)C3)cc1 [1‐4n, N‐(4‐((3r,5r,7r)‐Adamantan‐1‐yl)Phenyl)−1‐Methyl‐1H‐Pyrrole‐2‐Carboxamide] | 57.5 ± 2% |  | 

Row | SMILES | inhibition at 10 µM [2, 3] | IC50 ([2]; Homo sapiens, HEK-293T) | further results
19 | O=C(Nc1ccc(C23CC4CC(CC(C4)C2)C3)cc1)c1ccsc1 [1‐4o, N‐(4‐((3r,5r,7r)‐Adamantan‐1‐yl)Phenyl)Thiophene‐3‐Carboxamide] | 48.5 ± 8.7% |  | 
20 | Nc1ccnc(C(=O)Nc2ccc(C34CC5CC(CC(C5)C3)C4)cc2)c1 [1‐4p, N‐(4‐((3r,5r,7r)‐Adamantan‐1‐yl)Phenyl)−4‐Aminopicolinamide] | 99.2 ± 0.1% | 73 ± 2 nM | concentration in the plasma (rough screen) [1]: barely detectable in the plasma
21 | Nc1cccc(C(=O)Nc2ccc(C34CC5CC(CC(C5)C3)C4)cc2)n1 [1‐4q, N‐(4‐((3r,5r,7r)‐Adamantan‐1‐yl)Phenyl)−6‐Aminopicolinamide] | 98.6 ± 0.1% | 110 ± 20 nM | 
22 | Nc1cccnc1C(=O)Nc1ccc(C23CC4CC(CC(C4)C2)C3)cc1 [1‐4r, N‐(4‐((3r,5r,7r)‐Adamantan‐1‐yl)Phenyl)−3‐Aminopicolinamide] | 97.5 ± 1% | 170 ± 20 nM | 
23 | O=C(NC1C2CC3CC(C2)CC1C3)c1ccc(NC(=O)c2ccccn2)cc1 [2‐3a, N‐(4‐(((1R,3S,5r,7r)‐Adamantan‐2‐yl)Carbamoyl)Phenyl)Picolinamide] | 78.5 ± 4.5% | 1500 ± 200 nM | 
24 | O=C(CC12CC3CC(CC(C3)C1)C2)Nc1ccc(NC(=O)c2ccccn2)cc1 [2‐3b, N‐(4‐(2‐((3r,5r,7r)‐Adamantan‐1‐yl)Acetamido)Phenyl)Picolinamide] | 68 ± 4.7% | 3500 ± 1000 nM | 
25 | CC(NC(=O)c1ccc(NC(=O)c2ccccn2)cc1)C12CC3CC(CC(C3)C1)C2 (stereo not drawn) [2‐3c, N‐(4‐((1‐((3r,5r,7r)‐Adamantan‐1‐yl)Ethyl)Carbamoyl)Phenyl)Picolinamide] | 79.9 ± 2% | 2100 ± 400 nM | 
26 | Cc1cc(C23CC4CC(CC(C4)C2)C3)cc(C)c1NC(=O)c1cccc(Cl)c1 [3‐2a, N‐(4‐((3r,5r,7r)‐Adamantan‐1‐yl)−2,6‐Dimethylphenyl)−3‐Chlorobenzamide] | 34.8 ± 3.8% |  | 
27 | CC(C)c1cc(C23CC4CC(CC(C4)C2)C3)cc(C(C)C)c1NC(=O)c1cccc(Cl)c1 [3‐2b, N‐(4‐((3r,5r,7r)‐Adamantan‐1‐yl)−2,6‐Diisopropylphenyl)−3‐Chlorobenzamide] | 27 ± 4.9% |  | 
28 | O=C(Nc1ncc(C23CC4CC(CC(C4)C2)C3)cn1)c1cccc(Cl)c1 [3‐2c, N‐(5‐((3r,5r,7r)‐Adamantan‐1‐yl)Pyrimidin‐2‐yl)−3‐Chlorobenzamide] | 65.3 ± 4.3% |  | 
29 | CC(=O)Nc1ccc(C(=O)Nc2ccc(C34CC5CC(C)(CC(C)(C5)C3)C4)cc2)cc1 [3‐2d] | 31.4 ± 4.5% |  | 
30 | CC12CC3CC(C)(C1)CC(c1ccc(NC(=O)c4cccc(Cl)c4)cc1)(C3)C2 [3‐2e, 3‐Chloro‐N‐(4‐((1r,3R,5S,7r)−3,5‐Dimethyladamantan‐1‐yl)Phenyl)Benzamide] | 27.1 ± 1% |  | 
31 | Cc1cc(C23CC4CC(C)(CC(C)(C4)C2)C3)cc(C)c1NC(=O)c1cccc(Cl)c1 [3‐2f, 3‐Chloro‐N‐(4‐((1r,3R,5S,7r)−3,5‐Dimethyladamantan‐1‐yl)−2,6‐Dimethylphenyl)Benzamide] | 65.7 ± 6.7% |  | 
32 | CC12CC3CC(C)(C1)CC(c1cnc(NC(=O)c4cccc(Cl)c4)nc1)(C3)C2 [3‐2g, 3‐Chloro‐N‐(5‐((1r,3R,5S,7r)−3,5‐Dimethyladamantan‐1‐yl)Pyrimidin‐2‐yl)Benzamide] | 27.8 ± 8.8% |  | 
33 | CCc1cc(C23CC4CC(C)(CC(C)(C4)C2)C3)cc(CC)c1NC(=O)c1cccc(Cl)c1 [3‐2h, 3‐Chloro‐N‐(4‐((1r,3R,5S,7r)−3,5‐Dimethyladamantan‐1‐yl)−2,6‐Diethylphenyl)Benzamide] | 30 ± 8.4% |  | 
34 | CCc1cc(C23CC4CC(CC(C4)C2)C3)cc(CC)c1NC(=O)c1cccc(Cl)c1 [3‐2i, N‐(4‐((3r,5r,7r)‐Adamantan‐1‐yl)−2,6‐Diethylphenyl)−3‐Chlorobenzamide] | 35.1 ± 5.7% |  | 
35 | COC(=O)c1ccc(O)c(NC(=O)COc2ccc(C34CC5CC(CC(C5)C3)C4)cc2)c1 [LW6, reference compound] | 70.9 ± 3.7% | 2600 ± 500 nM | 
